{"source": "patent US4345938A", "about": "“Herbicidal 2-haloacetanilides” (Monsanto Company, priority 1980, dated 1982); on Rating, Barnyardgrass: ranges in brackets are in %; on Rating, Crabgrass: ranges in brackets are in %; on Rating, Downy Brome: ranges in brackets are in %; on Rating, Hemp Sesbania: ranges in brackets are in %; on Rating, Johnsongrass: ranges in brackets are in %; on Rating, Rice: ranges in brackets are in %; on Rating, Sorghum: ranges in brackets are in %; on Rating, Soybean: ranges in brackets are in %; on Rating, Sugarbeet: ranges in brackets are in %; on Rating, Velvetleaf: ranges in brackets are in %; on Rating, Wild Buckwheat: ranges in brackets are in %; on Rating, Yellow Nutsedge: ranges in brackets are in %", "type_in_all_cases": "in vivo", "key": {"Cocklebur": {"system": "Cocklebur", "assay": "Pre-emergent herbicidal test, Cocklebur; further: ranges in brackets are in %", "settings": "Table II", "description": "(§1) A good grade of top soil is placed in aluminum pans and compacted to a depth of three-eights to one-half inch from the top of the pan. On the top of the soil is placed a number of seeds or vegetative propagules of various plant species. The soil required to level fill the pans after seeding or adding vegetative propagules is weighted into a pan. The soil and a known amount of the active ingredient applied in a solvent or as a wettable powder suspension are thoroughly mixed, and used to cover the prepared pans. After treatment, the pans are moved into a greenhouse bench where they are watered by subirrigation as needed to give adequate moisture for germination and growth.\n(§2) Approximately 2 weeks after seeding and treating, the plants were observed and the results recorded. The herbicidal rating was obtained by means of a fixed scale based on the percent injury of each plant species. The ratings are defined as follows: […]"}, "Velvetleaf": {"system": "Velvetleaf", "assay": "Pre-emergent herbicidal test, Velvetleaf", "description": "as §1, §2"}, "Yellow Nutsedge": {"system": "Yellow Nutsedge", "assay": "Pre-emergent herbicidal test, Yellow Nutsedge", "settings": "Table I", "description": "as §1, §2"}, "Johnsongrass": {"system": "Johnsongrass", "assay": "Pre-emergent herbicidal test, Johnsongrass", "settings": "Table I", "description": "as §1, §2"}, "Downy Brome": {"system": "Downy Brome", "assay": "Pre-emergent herbicidal test, Downy Brome", "description": "as §1, §2"}, "Barnyardgrass": {"system": "Barnyardgrass", "assay": "Pre-emergent herbicidal test, Barnyardgrass", "description": "as §1, §2"}, "Soybean": {"system": "Soybean", "assay": "Pre-emergent herbicidal test, Soybean", "settings": "Table II", "description": "as §1, §2\n(§3) The compounds were further tested by utilizing the above procedure on the following plant species: […]"}, "Sugarbeet": {"system": "Sugarbeet", "assay": "Pre-emergent herbicidal test, Sugarbeet", "settings": "Table II", "description": "as §1, §2, §3"}, "Rice": {"system": "Rice", "assay": "Pre-emergent herbicidal test, Rice", "settings": "Table II", "description": "as §1, §2, §3"}, "Sorghum": {"system": "Sorghum", "assay": "Pre-emergent herbicidal test, Sorghum", "settings": "Table II", "description": "as §1, §2, §3"}, "Wild Buckwheat": {"system": "Wild Buckwheat", "assay": "Pre-emergent herbicidal test, Wild Buckwheat", "settings": "Table II", "description": "as §1, §2, §3"}, "Hemp Sesbania": {"system": "Hemp Sesbania", "assay": "Pre-emergent herbicidal test, Hemp Sesbania", "settings": "Table II", "description": "as §1, §2, §3"}, "Crabgrass": {"system": "Crabgrass", "assay": "Pre-emergent herbicidal test, Crabgrass", "settings": "Table II", "description": "as §1, §2, §3"}, "[1]": {"assay": "Fish toxicity (carp), Japanese protocol", "settings": "in vivo, carp (7 cm), read-out: TLM, Median Tolerance Limit (LC50)", "experimental": "(§4) In view of the importance of fish toxicity considerations, tests were conducted with the compound of Example 1 on carp (7 cm) according to Japanese protocol; test data are shown in Table VII. Since U.S. Pat. No. 3,955,959 mentioned above discloses carp toxicity data for butachlor (Compound A) and terbuchlor (Compound C), also obtained according to Japanese protocol, the toxicity data in said U.S. Pat. No. 3,955,959 for these compounds is also presented in Table VII for comparative purposes."}, "Carp": {"system": "Carp", "assay": "Fish toxicity (carp), Japanese protocol", "experimental": "as §4"}}}
{"compound": "CCCCOc1cccc(CC)c1N(C)C(=O)CCl", "note": "[Example 1, N-methyl-2'-n-butoxy-6'-ethyl-2-chloroacetanilide]", "values": [{"measurement": "Rating, Cocklebur", "setting": "Cocklebur; 0.06 kg/h", "value": "0 (0-24)"}, {"measurement": "Rating, Cocklebur", "setting": "Cocklebur; 5.6 kg/h", "value": "0 (0-24)"}, {"measurement": "Rating, Velvetleaf", "setting": "Velvetleaf; Table I, 5.6 kg/h", "value": "2 (50-74)"}, {"measurement": "Rating, Velvetleaf", "setting": "Velvetleaf; Table I, 11.2 kg/h", "value": "2 (50-74)"}, {"measurement": "Rating, Velvetleaf", "setting": "Velvetleaf; Table II, 0.006 kg/h", "value": "0 (0-24)"}, {"measurement": "Rating, Velvetleaf", "setting": "Velvetleaf; Table II, 0.01 kg/h", "value": "0 (0-24)"}, {"measurement": "Rating, Velvetleaf", "setting": "Velvetleaf; Table II, 0.06 kg/h", "value": "0 (0-24)"}, {"measurement": "Rating, Velvetleaf", "setting": "Velvetleaf; Table II, 0.28 kg/h", "value": "0 (0-24)"}, {"measurement": "Rating, Velvetleaf", "setting": "Velvetleaf; Table II, 1.12 kg/h", "value": "1 (25-49)"}, {"measurement": "Rating, Velvetleaf", "setting": "Velvetleaf; Table II, 5.6 kg/h", "value": "1 (25-49)"}, {"measurement": "Rating, Yellow Nutsedge", "setting": "Yellow Nutsedge; 5.6 kg/h", "value": "3 (75-100)"}, {"measurement": "Rating, Yellow Nutsedge", "setting": "Yellow Nutsedge; 11.2 kg/h", "value": "3 (75-100)"}, {"measurement": "Rating, Johnsongrass", "setting": "Johnsongrass; 5.6 kg/h", "value": "3 (75-100)"}, {"measurement": "Rating, Johnsongrass", "setting": "Johnsongrass; 11.2 kg/h", "value": "3 (75-100)"}, {"measurement": "Rating, Downy Brome", "setting": "Downy Brome; Table I, 5.6 kg/h", "value": "3 (75-100)"}, {"measurement": "Rating, Downy Brome", "setting": "Downy Brome; Table I, 11.2 kg/h", "value": "3 (75-100)"}, {"measurement": "Rating, Downy Brome", "setting": "Downy Brome; Table II, 0.006 kg/h", "value": "0 (0-24)"}, {"measurement": "Rating, Downy Brome", "setting": "Downy Brome; Table II, 0.01 kg/h", "value": "1 (25-49)"}, {"measurement": "Rating, Downy Brome", "setting": "Downy Brome; Table II, 0.06 kg/h", "value": "3 (75-100)"}, {"measurement": "Rating, Downy Brome", "setting": "Downy Brome; Table II, 0.28 kg/h", "value": "3 (75-100)"}, {"measurement": "Rating, Downy Brome", "setting": "Downy Brome; Table II, 1.12 kg/h", "value": "3 (75-100)"}, {"measurement": "Rating, Downy Brome", "setting": "Downy Brome; Table II, 5.6 kg/h", "value": "3 (75-100)"}, {"measurement": "Rating, Barnyardgrass", "setting": "Barnyardgrass; Table I, 5.6 kg/h", "value": "3 (75-100)"}, {"measurement": "Rating, Barnyardgrass", "setting": "Barnyardgrass; Table I, 11.2 kg/h", "value": "3 (75-100)"}, {"measurement": "Rating, Barnyardgrass", "setting": "Barnyardgrass; Table II, 0.006 kg/h", "value": "1 (25-49)"}, {"measurement": "Rating, Barnyardgrass", "setting": "Barnyardgrass; Table II, 0.01 kg/h", "value": "2 (50-74)"}, {"measurement": "Rating, Barnyardgrass", "setting": "Barnyardgrass; Table II, 0.06 kg/h", "value": "3 (75-100)"}, {"measurement": "Rating, Barnyardgrass", "setting": "Barnyardgrass; Table II, 0.28 kg/h", "value": "3 (75-100)"}, {"measurement": "Rating, Barnyardgrass", "setting": "Barnyardgrass; Table II, 1.12 kg/h", "value": "3 (75-100)"}, {"measurement": "Rating, Barnyardgrass", "setting": "Barnyardgrass; Table II, 5.6 kg/h", "value": "3 (75-100)"}, {"measurement": "Rating, Soybean", "setting": "Soybean; 0.006 kg/h", "value": "0 (0-24)"}, {"measurement": "Rating, Soybean", "setting": "Soybean; 0.01 kg/h", "value": "0 (0-24)"}, {"measurement": "Rating, Soybean", "setting": "Soybean; 0.06 kg/h", "value": "0 (0-24)"}, {"measurement": "Rating, Soybean", "setting": "Soybean; 0.28 kg/h", "value": "0 (0-24)"}, {"measurement": "Rating, Soybean", "setting": "Soybean; 1.12 kg/h", "value": "0 (0-24)"}, {"measurement": "Rating, Soybean", "setting": "Soybean; 5.6 kg/h", "value": "1 (25-49)"}, {"measurement": "Rating, Sugarbeet", "setting": "Sugarbeet; 0.006 kg/h", "value": "0 (0-24)"}, {"measurement": "Rating, Sugarbeet", "setting": "Sugarbeet; 0.01 kg/h", "value": "0 (0-24)"}, {"measurement": "Rating, Sugarbeet", "setting": "Sugarbeet; 0.06 kg/h", "value": "0 (0-24)"}, {"measurement": "Rating, Sugarbeet", "setting": "Sugarbeet; 0.28 kg/h", "value": "1 (25-49)"}, {"measurement": "Rating, Sugarbeet", "setting": "Sugarbeet; 1.12 kg/h", "value": "2 (50-74)"}, {"measurement": "Rating, Sugarbeet", "setting": "Sugarbeet; 5.6 kg/h", "value": "3 (75-100)"}, {"measurement": "Rating, Rice", "setting": "Rice; 0.006 kg/h", "value": "1 (25-49)"}, {"measurement": "Rating, Rice", "setting": "Rice; 0.01 kg/h", "value": "1 (25-49)"}, {"measurement": "Rating, Rice", "setting": "Rice; 0.06 kg/h", "value": "1 (25-49)"}, {"measurement": "Rating, Rice", "setting": "Rice; 0.28 kg/h", "value": "3 (75-100)"}, {"measurement": "Rating, Rice", "setting": "Rice; 1.12 kg/h", "value": "3 (75-100)"}, {"measurement": "Rating, Rice", "setting": "Rice; 5.6 kg/h", "value": "3 (75-100)"}, {"measurement": "Rating, Sorghum", "setting": "Sorghum; 0.006 kg/h", "value": "0 (0-24)"}, {"measurement": "Rating, Sorghum", "setting": "Sorghum; 0.01 kg/h", "value": "0 (0-24)"}, {"measurement": "Rating, Sorghum", "setting": "Sorghum; 0.06 kg/h", "value": "2 (50-74)"}, {"measurement": "Rating, Sorghum", "setting": "Sorghum; 0.28 kg/h", "value": "3 (75-100)"}, {"measurement": "Rating, Sorghum", "setting": "Sorghum; 1.12 kg/h", "value": "3 (75-100)"}, {"measurement": "Rating, Sorghum", "setting": "Sorghum; 5.6 kg/h", "value": "3 (75-100)"}, {"measurement": "Rating, Wild Buckwheat", "setting": "Wild Buckwheat; 0.006 kg/h", "value": "0 (0-24)"}, {"measurement": "Rating, Wild Buckwheat", "setting": "Wild Buckwheat; 0.01 kg/h", "value": "1 (25-49)"}, {"measurement": "Rating, Wild Buckwheat", "setting": "Wild Buckwheat; 0.06 kg/h", "value": "1 (25-49)"}, {"measurement": "Rating, Wild Buckwheat", "setting": "Wild Buckwheat; 0.28 kg/h", "value": "1 (25-49)"}, {"measurement": "Rating, Wild Buckwheat", "setting": "Wild Buckwheat; 1.12 kg/h", "value": "2 (50-74)"}, {"measurement": "Rating, Wild Buckwheat", "setting": "Wild Buckwheat; 5.6 kg/h", "value": "3 (75-100)"}, {"measurement": "Rating, Hemp Sesbania", "setting": "Hemp Sesbania; 0.006 kg/h", "value": "2 (50-74)"}, {"measurement": "Rating, Hemp Sesbania", "setting": "Hemp Sesbania; 0.01 kg/h", "value": "2 (50-74)"}, {"measurement": "Rating, Hemp Sesbania", "setting": "Hemp Sesbania; 0.06 kg/h", "value": "3 (75-100)"}, {"measurement": "Rating, Hemp Sesbania", "setting": "Hemp Sesbania; 0.28 kg/h", "value": "3 (75-100)"}, {"measurement": "Rating, Hemp Sesbania", "setting": "Hemp Sesbania; 1.12 kg/h", "value": "3 (75-100)"}, {"measurement": "Rating, Hemp Sesbania", "setting": "Hemp Sesbania; 5.6 kg/h", "value": "3 (75-100)"}, {"measurement": "Rating, Crabgrass", "setting": "Crabgrass; 0.006 kg/h", "value": "1 (25-49)"}, {"measurement": "Rating, Crabgrass", "setting": "Crabgrass; 0.01 kg/h", "value": "3 (75-100)"}, {"measurement": "Rating, Crabgrass", "setting": "Crabgrass; 0.06 kg/h", "value": "3 (75-100)"}, {"measurement": "Rating, Crabgrass", "setting": "Crabgrass; 0.28 kg/h", "value": "3 (75-100)"}, {"measurement": "Rating, Crabgrass", "setting": "Crabgrass; 1.12 kg/h", "value": "3 (75-100)"}, {"measurement": "Rating, Crabgrass", "setting": "Crabgrass; 5.6 kg/h", "value": "3 (75-100)"}, {"measurement": "LC50 at 96 h", "setting": "[1]; 96 Hours", "value": 2.4, "unit": "µg/mL"}, {"measurement": "LC50 at 48 h", "setting": "[1]; 48 hours", "value": 3.2, "unit": "µg/mL"}, {"measurement": "expected fish kill relative to Compound A", "setting": "Carp; at expected use rates, vs Compound A", "value": "only one-sixth"}, {"measurement": "toxicity to carp relative to Compound A", "setting": "Carp; vs Compound A", "value": "less than one-third as toxic"}, {"measurement": "toxicity to carp relative to Compound C", "setting": "Carp; vs Compound C", "value": "almost one-half as toxic"}]}
